Data published in PubChem BioAssay AID330 (DTP/NCI, 2004).
Where “and” joins values, the source holds several entries; their conditions need not be identical. Equal entries are not always repeated. Toxic doses and inconclusive results are not listed. Rule for the calls: active = survival T/C of 150% or more; inactive = T/C below 125% in these data. Peptide text beside a SMILES is read from it.

Test system: P388 leukemia ip, CD2F1 mice, survival T/C
Experiment: NCI In Vivo Anticancer Drug Screen. Data for tumor model P388 Leukemia (intraperitoneal) in CD2F1 (CDF1) mice
Settings: endpoint: median survival time, higher = longer survival
Outline: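 Mice carrying the transplanted tumor received test compound or vehicle. Survival was recorded in each group, and the value is the treated-group measurement divided by that of the vehicle-treated control group.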

[1] = dose: 12.5 mg/kg/injection, schedule: Q01DX009 (ip), vehicle: saline with Tween-80
[2] = dose: 25.0 mg/kg/injection, schedule: Q01DX009 (ip), vehicle: saline with Tween-80
[3] = dose: 50.0 mg/kg/injection, schedule: Q01DX009 (ip), vehicle: saline with Tween-80
[4] = dose: 50.0 mg/kg/injection, schedule: Q01DX005 (ip), vehicle: saline
[5] = dose: 100.0 mg/kg/injection, schedule: Q01DX005 (ip), vehicle: saline
[6] = dose: 200.0 mg/kg/injection, schedule: Q01DX005 (ip), vehicle: saline
[7] = dose: 50.0 mg/kg/injection, schedule: Q01DX005 (ip), vehicle: Klucel (hydroxypropylcellulose) (HPC)
[8] = dose: 100.0 mg/kg/injection, schedule: Q01DX005 (ip), vehicle: Klucel (hydroxypropylcellulose) (HPC)
[9] = dose: 200.0 mg/kg/injection, schedule: Q01DX005 (ip), vehicle: Klucel (hydroxypropylcellulose) (HPC)
[10] = dose: 50.0 mg/kg/injection, schedule: Q01DX005 (ip), vehicle: saline with Tween-80
[11] = dose: 100.0 mg/kg/injection, schedule: Q01DX005 (ip), vehicle: saline with Tween-80
[12] = dose: 200.0 mg/kg/injection, schedule: Q01DX005 (ip), vehicle: saline with Tween-80
[13] = dose: 100.0 mg/kg/injection, schedule: Q01DX009 (ip), vehicle: saline with Tween-80
[14] = dose: 200.0 mg/kg/injection, schedule: Q01DX009 (ip), vehicle: saline with Tween-80
[15] = dose: 200.0 mg/kg/injection, schedule: Q04DX003 (ip), vehicle: saline with Tween-80
[16] = dose: 400.0 mg/kg/injection, schedule: Q01DX009 (ip), vehicle: saline with Tween-80
[17] = dose: 400.0 mg/kg/injection, schedule: Q04DX003 (ip), vehicle: saline with Tween-80
[18] = dose: 100.0 mg/kg/injection, schedule: Q01DX009 (ip), vehicle: Klucel (hydroxypropylcellulose) (HPC)
[19] = dose: 50.0 mg/kg/injection, schedule: Q01DX009 (ip), vehicle: Klucel (hydroxypropylcellulose) (HPC)
[20] = dose: 200.0 mg/kg/injection, schedule: Q01DX009 (ip), vehicle: Klucel (hydroxypropylcellulose) (HPC)
[21] = dose: 60.0 mg/kg/injection, schedule: Q01DX005 (ip), vehicle: saline with Tween-80
[22] = dose: 120.0 mg/kg/injection, schedule: Q01DX005 (ip), vehicle: saline with Tween-80
[23] = dose: 240.0 mg/kg/injection, schedule: Q01DX005 (ip), vehicle: saline with Tween-80
[24] = dose: 100.0 mg/kg/injection, schedule: Q04DX003 (ip), vehicle: saline with Tween-80
[25] = dose: 100.0 mg/kg/injection, schedule: Q04DX002 (ip), vehicle: saline with Tween-80
[26] = dose: 200.0 mg/kg/injection, schedule: Q04DX002 (ip), vehicle: saline with Tween-80
[27] = dose: 400.0 mg/kg/injection, schedule: Q04DX002 (ip), vehicle: saline with Tween-80

Measured: T/C

COc1ccc(S(=O)(=O)N=N/C=C2\C=CC=CN2O)cc1OC
inactive: dose: 1.56 mg/kg/injection, schedule: Q01DX009 (ip), vehicle: saline with Tween-80 104 % of control | dose: 3.12 mg/kg/injection, schedule: Q01DX009 (ip), vehicle: saline with Tween-80 103 % of control | dose: 6.25 mg/kg/injection, schedule: Q01DX009 (ip), vehicle: saline with Tween-80 103 % of control | [1] 100 % of control and 103 % of control and 90 % of control | dose: 25.0 mg/kg/injection, schedule: Q01DX001 (ip), vehicle: saline with Tween-80 100 % of control | [2] 110 % of control and 114 % of control and 117 % of control | dose: 50.0 mg/kg/injection, schedule: Q01DX001 (ip), vehicle: saline with Tween-80 109 % of control | [3] 119 % of control | dose: 100.0 mg/kg/injection, schedule: Q01DX001 (ip), vehicle: saline with Tween-80 118 % of control

CC(NC(=O)C(C)NC(=O)C(N)CCC(=O)O)C(=O)O (stereo not drawn) (H-Glu-Ala-Ala-OH; configuration not given here)
inactive: [4] 104 % of control | [5] 104 % of control | [6] 103 % of control

CC1Cc2ccccc2/C1=N/NC(N)=O (configuration not stated)
inactive: [7] 103 % of control | [8] 100 % of control | [9] 99 % of control

Cc1ccc(S(=O)(=O)Oc2ccc3sc4cccc(NCCN(C)C)c4c(=O)c3c2)cc1
inactive: dose: 12.5 mg/kg/injection, schedule: Q01DX005 (ip), vehicle: saline with Tween-80 104 % of control | dose: 25.0 mg/kg/injection, schedule: Q01DX005 (ip), vehicle: saline with Tween-80 93 % of control | [10] 90 % of control and 96 % of control | [11] 92 % of control and 94 % of control | [12] 92 % of control | dose: 400.0 mg/kg/injection, schedule: Q01DX005 (ip), vehicle: saline with Tween-80 94 % of control

COc1ccc(/C=C/C(=O)c2ccc3c(c2)OCO3)cc1OC
inactive: [1] 98 % of control | [2] 98 % of control and 100 % of control | [3] 99 % of control and 101 % of control | [13] 100 % of control and 94 % of control | [14] 103 % of control and 93 % of control | [15] 109 % of control | dose: 300.0 mg/kg/injection, schedule: Q01DX009 (ip), vehicle: saline with Tween-80 93 % of control | [16] 100 % of control | [17] 109 % of control

c1cc[c]([Sn]([NH]c2ncnc3[nH]cnc23)([NH]c2ncnc3[nH]cnc23)[c]2ccccc2)cc1
active: [18] 196 % of control
inactive: dose: 12.5 mg/kg/injection, schedule: Q01DX009 (ip), vehicle: saline 123 % of control

O=c1nc(-c2ccco2)sc(=O)[nH]1
inactive: dose: 25.0 mg/kg/injection, schedule: Q01DX009 (ip), vehicle: Klucel (hydroxypropylcellulose) (HPC) 109 % of control | [19] 106 % of control and 117 % of control | [18] 113 % of control | [20] 105 % of control and 121 % of control

COc1ccc2nccc(CO)c2c1
inactive: [7] 102 % of control | [8] 102 % of control | [9] 96 % of control

O=C(CNC(=O)Nc1cccc([N+](=O)[O-])c1)NNC(=O)Nc1ccc(Cl)c([N+](=O)[O-])c1
inactive: [21] 91 % of control | [22] 91 % of control | [23] 106 % of control

NSc1nc2ccccc2s1
inactive: [24] 100 % of control | [15] 100 % of control

Cc1cccc(/C(=C/c2ccc([N+](=O)[O-])cc2)C(=O)Nc2ccc(S(=O)(=O)F)cc2)c1
inactive: [21] 93 % of control | [22] 98 % of control

CC1=C(C)C(=Nc2ccc(N(CCCl)CCCl)cc2)C=CC1=O
inactive: dose: 50.0 mg/kg/injection, schedule: Q01DX001 (ip), vehicle: Klucel (hydroxypropylcellulose) (HPC) 97 % of control | dose: 100.0 mg/kg/injection, schedule: Q01DX001 (ip), vehicle: Klucel (hydroxypropylcellulose) (HPC) 100 % of control | dose: 200.0 mg/kg/injection, schedule: Q01DX001 (ip), vehicle: Klucel (hydroxypropylcellulose) (HPC) 114 % of control

CCC12CCCN1CCc1c([nH]c3ccccc13)C2=O (configuration not stated)
inactive: dose: 100.0 mg/kg/injection, schedule: Q04DX002 (ip), vehicle: suspension in saline 105 % of control | dose: 200.0 mg/kg/injection, schedule: Q04DX002 (ip), vehicle: suspension in saline 99 % of control

OCCC1CC2CCCCN2O1 (configuration not stated)
inactive: dose: 50.0 mg/kg/injection, schedule: Q04DX003 (ip), vehicle: saline 101 % of control | dose: 100.0 mg/kg/injection, schedule: Q04DX003 (ip), vehicle: saline 103 % of control | dose: 200.0 mg/kg/injection, schedule: Q04DX003 (ip), vehicle: saline 102 % of control

Cc1cc(N)c([N+](=O)[O-])cc1C
inactive: [3] 101 % of control | [13] 100 % of control | [14] 96 % of control | [16] 95 % of control

NC(=O)C(CCCN=C(N)N)NC(=O)c1ccccc1 (configuration not stated)
inactive: [4] 105 % of control | [5] 99 % of control | [6] 105 % of control

COc1cccc(-c2nnc(-c3nc[nH]c3C)[nH]c2=O)c1
inactive: [25] 93 % of control | [26] 91 % of control | [27] 91 % of control

CCOC(=O)c1[nH]cnc1/N=N/N(C)CCO
inactive: [24] 109 % of control | [15] 113 % of control | [17] 118 % of control

CC(C)(C)OC(=O)NN=C1CCC(C(C)(C)C)CC1 (configuration not stated)
inactive: dose: 25.0 mg/kg/injection, schedule: Q04DX003 (ip), vehicle: Klucel (hydroxypropylcellulose) (HPC) 100 % of control | dose: 50.0 mg/kg/injection, schedule: Q04DX003 (ip), vehicle: Klucel (hydroxypropylcellulose) (HPC) 95 % of control | dose: 100.0 mg/kg/injection, schedule: Q04DX003 (ip), vehicle: Klucel (hydroxypropylcellulose) (HPC) 100 % of control

C[c-]1[c-][c-][c-][c-]1.C[c-]1[c-][c-][c-][c-]1.[C-]#[O+].[C-]#[O+].[C-]#[O+].[C-]#[O+].[C-]#[O+].[C-]#[O+].[Mo].[Mo]
inactive: [11] 98 % of control | [12] 93 % of control

CC(=O)Nc1ccc(OCCOC(=O)Nc2c(Cl)cccc2Cl)cc1
inactive: [19] 92 % of control | [20] 92 % of control

O=C(O)/C=C/c1c(-c2ccccc2)sc2ccccc2c1=O
inactive: [25] 93 % of control | [26] 97 % of control | [27] 97 % of control

C1CCC(C2CCCC[N-]2)[N-]C1.C1CCC(C2CCCC[N-]2)[N-]C1.[Cl][Co][Cl] (configuration not stated)
inactive: dose: 50.0 mg/kg/injection, schedule: Q01DX009 (ip), vehicle: saline 100 % of control | dose: 100.0 mg/kg/injection, schedule: Q01DX009 (ip), vehicle: saline 109 % of control

FC(F)(F)c1cccc(C(OCC2CO2)(C(F)(F)F)C(F)(F)F)c1 (configuration not stated)
inactive: [19] 99 % of control | [18] 96 % of control | [20] 102 % of control

COC(=O)CCC(=O)CN1C(=O)c2ccccc2C1=O
inactive: [21] 106 % of control | [22] 111 % of control | [23] 111 % of control

CNC(=S)C#N
inactive: dose: 25.0 mg/kg/injection, schedule: Q01DX005 (ip), vehicle: saline + Tween-80 + alcohol 122 % of control | dose: 50.0 mg/kg/injection, schedule: Q01DX005 (ip), vehicle: saline + Tween-80 + alcohol 111 % of control and 119 % of control | dose: 100.0 mg/kg/injection, schedule: Q01DX005 (ip), vehicle: saline + Tween-80 + alcohol 119 % of control

CC1(C)C2CCC1(CS(=O)O)C(=O)C2.[Ag] (configuration not stated)
inactive: [10] 111 % of control | [11] 105 % of control

CC(=O)OC1C=CC(=O)C1 (configuration not stated)
inactive: dose: 7.5 mg/kg/injection, schedule: Q01DX005 (ip), vehicle: saline with Tween-80 122 % of control | dose: 15.0 mg/kg/injection, schedule: Q01DX005 (ip), vehicle: saline with Tween-80 116 % of control
